Assay type in all cases: cell-based
One test concerns KS Y-1 cells. As to the kind of experiment: KS Y-1 cell proliferation assay (MTT). The settings on record: concentration not given. The procedure: (§1) To determine if Saposin B polypeptides had anti-angiogenic activity, a series of overlapping polypeptides were synthesized and tested in the KS Y-1 cell proliferation assay. The overlapping polypeptides are SEQ ID NOs:13 though 43. Cell Proliferation assays in either KS cells or fibroblast. Cells were plated in 48 well plates at equal numbers in appropriate culture medium. Cells were treated with the test compounds at various concentrations on day one, and on day 3. MTT was done on day 5. KS cells were used to represent the activated endothelial cells, while fibroblast cells represent the control cells. The results are remarkable for the lack of toxicity to the fibroblast relative to the activated endothelial cells/KS cells.

The subject of a further test is fibroblast cells (T1). The test can be described thus: Fibroblast proliferation assay (MTT), control cells. The settings on record: for Cell Proliferation Activity (% of control), T1: concentration not printed. The procedure:
as §1

Test [1] concerns KS cell lines. The test can be described thus: KS cell migration in transwell plates. The settings on record: KS cell lines. As to the method:
The assays were done in double chamber wells separated by fibrinogen-coated membrane. Chemotaxis was induced by bFGF (25 ng/mL) in the lower chamber. Endothelial cells or KS cells (5×10^4/mL) were placed in the upper chamber in the presence and absence of test polypeptides. Taxol at 10 ng/mL was used as a known inhibitor of migration. Cell migration across the membrane was quantitated after an overnight incubation.
Angiogenesis is mediated by complex biochemical processes including degradation of the basement membrane under existing blood vessel endothelial cells, followed by proliferation and migration of endothelial cells, followed by formation of capillary loops, and recruitment of vascular smooth muscle cells to encase the newly formed vessels and provide stability. KS and endothelial cell migration in the presence of Saposin B was studied in transwell culture plates with 8 μm pore membranes (Costar, Cambridge, Mass.).
Briefly, wells were coated with fibronectin (25 μg/mL) overnight, and endothelial cells or KS cells were plated in the upper chamber with 100 μL of DMEM/0.4% FCS. 500 μL of DMEM/0.4% FCS was added to the lower chamber and incubated at 37° C. for one hour. The test polypeptides, at various concentrations, were added to the upper chamber, and chemotactic agents (VEGF or bFGF at 20 ng/mL) were added to the lower cell-culture chambers. The plates were incubated for 5 hr at 37° C. and the cells crossing the fibronectin-coated membrane were counted after wiping the cells off the membrane in the upper chamber with a cotton swab.
The cells that traversed the membrane were fixed with Diff-Quik stain according to the manufacturer's instruction (Dade Diagnostics Inc., Aguada, PR). The cells were counted under a microscope at 320× in four randomly selected fields. The experiments were done in duplicate and repeated at least three times.

In test [2] the test system is endothelial cells (HUVEC). The test can be described thus: Growth inhibition of endothelial cells. The procedure: (§2) Typically, in an anti-proliferation assay, the suppression of growth in the presence of the compound to be tested is measured. For example, the above cells are incubated with the polypeptides of this invention for a suitable time and the decrease in the growth rate relative to a negative control, i.e., cells of the same cell line which have been incubated in media alone, is measured. Growth of the cell culture can be measured by any method acceptable to one of skill, including but not limited to, 3H-thymidine uptake, cell counting and tetrazolium dye uptake.
(§3) By SDS-PAGE, the bacterial product was smaller than the eukaryotic protein. Because prokaryotically expressed proteins are not glycosylated, the difference in molecular weights probably represents the presence of carbohydrate in the eukaryotic protein. Recombinant proteins were then tested in KS, endothelial and control cell lines. Activity was found only in KS cell lines and endothelial cells.

The subject of test [3] is KS cell lines. The test can be described thus: Growth inhibition of KS cell lines by recombinant proteins. The settings on record: for growth inhibition / activity against KS cell lines: recombinant or naturally occurring protein. As to the method:
as §2, §3

Setting [4] is: up to the highest concentration tested (50 μg/mL).

No end group written: not given here.

Consider GDVCQDCIQMV [SEQ ID NO:19], for which the “Cell Proliferation Activity (% of control), KS Y-1” value is recorded as 28 % of control in the test with KS Y-1 cells (KS Y-1, first value column) and 8 % of control with KS Y-1 cells (KS Y-1). The “Fibroblast Proliferation, % of Control” value with fibroblast cells (T1) (1 μg/mL) and in the test on fibroblast cells (T1) (10 μg/mL) was 91.3 % of Control throughout. Besides, the results for the “% Cells Migrating Through Membrane (of Control)” value in the test with KS cell lines [1] (1 μg/mL), in the test with KS cell lines [1] (10 μg/mL) and in the test with KS cell lines [1] (50 μg/mL) were 78.23%, 40.32% and 20.98%, respectively.

As to DVCQDC [SEQ ID NO:27], the “Cell Proliferation Activity (% of control), KS Y-1” value in the test on KS Y-1 cells (KS Y-1, first value column) is given as 60 % of control; in the test with KS Y-1 cells (KS Y-1), 22 % of control. Moreover, the “Cell Proliferation Activity (% of control), T1” value is on record as 88 % of control in the test with fibroblast cells (T1) (T1, first value column) and 75 % of control in the test on fibroblast cells (T1) (T1, second value column).

On to GDVCQ [SEQ ID NO:22], for which the “Cell Proliferation Activity (% of control), KS Y-1” value is 59 % of control with KS Y-1 cells (KS Y-1, first value column) and 28 % of control with KS Y-1 cells (KS Y-1). In addition, the results for the “Fibroblast Proliferation, % of Control” value in the test on fibroblast cells (T1) (1 μg/mL), in the test with fibroblast cells (T1) (10 μg/mL) and in the test with fibroblast cells (T1) (50 μg/mL) were 95.7 % of Control, 95.7 % of Control and 87.0 % of Control, respectively.

As to DVCQDCIQMV [SEQ ID NO:21], in the test with KS Y-1 cells (KS Y-1, first value column), the “Cell Proliferation Activity (% of control), KS Y-1” value is 29 % of control. Further, the figures for the “Fibroblast Proliferation, % of Control” value in the test on fibroblast cells (T1) (1 μg/mL) and with fibroblast cells (T1) (50 μg/mL) were 100.0 % of Control and 87.0 % of Control, respectively. In addition, the “growth inhibition / activity against endothelial cells” value in test [2] was “Only endothelial cells show dose dependent growth inhibition”.

Turning to VCQDCIQMV [SEQ ID NO:29], the “Cell Proliferation Activity (% of control), KS Y-1” value in the test on KS Y-1 cells (KS Y-1, first value column) is given as 65 % of control; in the test with KS Y-1 cells (KS Y-1) it was 33 % of control. In addition, the “Cell Proliferation Activity (% of control), T1” value in the test on fibroblast cells (T1) (T1, first value column) is 95 % of control; in the test with fibroblast cells (T1) (T1, second value column), 86 % of control.

As to DCIQMV [SEQ ID NO:23], the “Cell Proliferation Activity (% of control), KS Y-1” value with KS Y-1 cells (KS Y-1, first value column) is given as 68 % of control; in the test on KS Y-1 cells (KS Y-1), 51 % of control.

In the case of DVCQDCIQ [SEQ ID NO:25], the “Cell Proliferation Activity (% of control), KS Y-1” value with KS Y-1 cells (KS Y-1, first value column) is reported as 72 % of control; in the test with KS Y-1 cells (KS Y-1), 39 % of control. For the same molecule, the “Cell Proliferation Activity (% of control), T1” value is on record as 98 % of control with fibroblast cells (T1) (T1, first value column) and 89 % of control in the test on fibroblast cells (T1) (T1, second value column).

With DVCQDCI [SEQ ID NO:26], the “Cell Proliferation Activity (% of control), KS Y-1” value in the test on KS Y-1 cells (KS Y-1, first value column) is listed as 72 % of control; in the test on KS Y-1 cells (KS Y-1), 40 % of control. Besides, the “Cell Proliferation Activity (% of control), T1” value in the test with fibroblast cells (T1) (T1, first value column) is reported as 96 % of control; in the test with fibroblast cells (T1) (T1, second value column), 81 % of control.

On to CQDCIQMV [SEQ ID NO:30], for which the “Cell Proliferation Activity (% of control), KS Y-1” value is on record as 77 % of control with KS Y-1 cells (KS Y-1, first value column) and 35 % of control in the test on KS Y-1 cells (KS Y-1). For the same molecule, the “Cell Proliferation Activity (% of control), T1” value in the test on fibroblast cells (T1) (T1, first value column) is on record as 92 % of control; in the test on fibroblast cells (T1) (T1, second value column), 84 % of control.

For the molecule DVCQDCIQM [SEQ ID NO:24], the “Cell Proliferation Activity (% of control), KS Y-1” value with KS Y-1 cells (KS Y-1, first value column) is 68 % of control; in the test with KS Y-1 cells (KS Y-1), 46 % of control. The “Cell Proliferation Activity (% of control), T1” value in the test with fibroblast cells (T1) (T1, first value column) is 96 % of control; in the test on fibroblast cells (T1) (T1, second value column), 84 % of control.

For the molecule GDVSQDSIQMV [SEQ ID NO:20], the “Cell Proliferation Activity (% of control), KS Y-1” value in the test with KS Y-1 cells (KS Y-1, first value column) was 93 % of control; in the test on KS Y-1 cells (KS Y-1), 84 % of control. The “Fibroblast Proliferation, % of Control” value in the test with fibroblast cells (T1) (10 μg/mL) and with fibroblast cells (T1) (50 μg/mL) was 95.7 % of Control in each case.

QDCIQMV [SEQ ID NO:31, QDCIQMV]: the “Cell Proliferation Activity (% of control), KS Y-1” value in the test on KS Y-1 cells (KS Y-1, first value column) was 74 % of control. The “Cell Proliferation Activity (% of control), T1” value in the test with fibroblast cells (T1) (T1, first value column) is 87 % of control; in the test with fibroblast cells (T1) (T1, second value column), 80 % of control.

B1: Prosaposin: 70 kD glycoprotein, precursor of Saposin A, B, C and D; naturally occurring full-length (protein, listed as Homo sapiens)
chain: MYALFLLASLLGAALAGPVLGLKECTRGSAVWCQNVKTASDCGAVKHCLQTVWNKPTVKSLPCDICKDVVTAAGDMLKDNATEEEILVYLEKTCDWLPKPNMSASCKEIVDSYLPVILDIIKGEMSRPGEVCSALNLCESLQKHLAELNHQKQLESNKIPELDMTEVVAPFMANIPLLLYPQDGPRSKPQPKDNGDVCQDCIQMVTDIQTAVRTNSTFVQALVEHVKEECDRLGPGMADICKNYISQYSEIAIQMMMHMQPKEICALVGFCDEVKEMPMQTLVPAKVASKNVIPALELVEPIKKHEVPAKSDVYCEVCEFLVKEVTKLIDNNKTEKEILDAFDKMCSKLPKSLSEECQEVVDTYGSSILSILLEEVSPELVCSMLHLCSGTRLPALTVHVTQPKDGGFCEVCKKLVGYLDRNLEKNSTKQEILAALEKGCSFLPDPYQKQCDQFVAEYEPVLIEILVEVMDPSFVCLKIGACPSAHKPLLGTEKCIWGPSYWCQNTETAAQCNAVEHCKRHVWN
modifications: prosaposin
notes: 70 kD glycoprotein, precursor of Saposin A, B, C and D; naturally occurring full-length
Take B1: the “growth inhibition / activity against KS cell lines” value in the test with KS cell lines [3] is “no activity”. In test [2], the “growth inhibition / activity against endothelial cells” value is “no activity”.

B2: Saposin D: sphingolipid-binding glycoprotein derived from Prosaposin, recombinant (protein, UniProt P07602 405-486, looked up)
Saposin-D: DGGFCEVCKKLVGYLDRNLEKNSTKQEILAALEKGCSFLPDPYQKQCDQFVAEYEPVLIEILVEVMDPSFVCLKIGACPSAH
modifications: Saposin-D
For the molecule B2, the “growth inhibition / activity against KS cell lines” value in the test with KS cell lines [3] was “no activity”. For the same molecule, the “growth inhibition / activity against endothelial cells” value in test [2] was “no activity”.

B3: Saposin C: sphingolipid-binding glycoprotein derived from Prosaposin, recombinant (protein, UniProt P07602 311-390, looked up)
Saposin-C: SDVYCEVCEFLVKEVTKLIDNNKTEKEILDAFDKMCSKLPKSLSEECQEVVDTYGSSILSILLEEVSPELVCSMLHLCSG
modifications: Saposin-C
Consider B3, for which the “activity against KS cell lines” value with KS cell lines [3] (setting [4]) is “no activity”. Further, in test [2] (setting [4]), the “activity against endothelial cells” value was “no activity”.

B4: Saposin A: sphingolipid-binding glycoprotein derived from Prosaposin, recombinant (protein, UniProt P07602 60-142, looked up)
Saposin-A: SLPCDICKDVVTAAGDMLKDNATEEEILVYLEKTCDWLPKPNMSASCKEIVDSYLPVILDIIKGEMSRPGEVCSALNLCESLQ
modifications: Saposin-A
As for B4, the “growth inhibition / activity against KS cell lines” value in the test on KS cell lines [3] is “no activity”. Besides, in test [2], the “growth inhibition / activity against endothelial cells” value is reported as “no activity”.

The values above are taken from patent US7341730B1, “Inhibitors of angiogenesis and tumor growth” (University of Southern California, priority 1998, dated 2008).
